# Patent US12501917B2, “Methods and compositions for treating intestinal disorder” (MARS, INCORPORATED, priority 2019, dated 2025)
# Test system: canine fecal microbiome
# Conditions: dog, in vivo
smiles,measurement,value
Cc1ncc([N+](=O)[O-])n1CCO [metronidazole],"dysbiosis (community evenness, distance from healthy controls, potential pathogens)",exacerbated dysbiosis
